Experimental data published in patent US20140010806A1, “Treatment of Ocular Diseases” (priority 2012, published 2014).

Target: NF-κB
Test: NF-κB-bla THP-1 β-lactamase reporter assay, activation of NF-κB by TNFα or LPS
Format: cell-based, human
Conditions: positive control assays; 1 hour β-lactamase substrate incubation
Excerpt: Reduction of inflammation. Inhibition of NF-κB by 17α-ethynylandrost-5-ene-3β,7β,17β-triol in vitro. A number of compounds were used to inhibit activation of NF-κB by TNF-α or LPS in human cells in vitro. Activation of NF-κB increases expression of a number of genes that mediate inflammation. This protocol used human THP-1 cells, which are human mononuclear blood cells with a monocyte phenotype. The cell line, referred to as NF-κB-bla THP-1, contained a β-lactamase reporter gene under the control of the NF-κB response element (Invitrogen, CellSensor™, product No. K1176). In this cell line, the β-lactamase reporter gene is stably integrated in the THP-1 cells. This cell line was used to detect agonists or antagonists of the NF-κB signaling pathway. These NF-κB-bla THP-1 cells respond to the presence of tumor necrosis factor alpha (TNFα) or bacterial lipopolysaccharide (LPS) by increased expression of the β-lactamase reporter gene. The level of β-lactamase enzyme activity was measured by fluorescence resonance energy transfer ratiometric detection. […]
The NF-κB-bla THP-1 cells were maintained by passaging or feeding as needed. […] The cells were plated at 20,000 cells/well in a 384-well Black-wall, clear bottom assay plates (Costar #3712-TC low fluorescence background plates) approximately 24 hours before adding either TNFα at 10 ng/mL or LPS at 0.2 ng/mL to activate NF-κB. […]

Substance: TNFα
- EC50 concentration for TNFα, activation of NF-κB: 0.20 ng/mL
